According to publication PMC13252604, “First Generation Proteolysis Targeting Chimeras (PROTACs) for the Treatment of Progeria” (Advanced Science, 2026):

Assays:
[1] = test system: Hutchinson‐Gilford Progeria Syndrome; conditions: progeria patients; cited from earlier work
progerin = molecular target: T1, progerin (Mus musculus, UniProt P48678, DEL608-657); assay: Progerin degradation, immunoblot in Lmna^G609G/G609G fibroblasts; assay type: cell-based; conditions: Lmna^G609G/G609G fibroblasts, 5 µM, 8 h, vs vehicle
T1 construct: endogenous in cells; host or cells: immortalized (SV40-LT) fibroblasts from Lmna G609G/G609G mice
T1 sequence (P48678 with tags, fused parts or gaps DEL608-657 limits assumed): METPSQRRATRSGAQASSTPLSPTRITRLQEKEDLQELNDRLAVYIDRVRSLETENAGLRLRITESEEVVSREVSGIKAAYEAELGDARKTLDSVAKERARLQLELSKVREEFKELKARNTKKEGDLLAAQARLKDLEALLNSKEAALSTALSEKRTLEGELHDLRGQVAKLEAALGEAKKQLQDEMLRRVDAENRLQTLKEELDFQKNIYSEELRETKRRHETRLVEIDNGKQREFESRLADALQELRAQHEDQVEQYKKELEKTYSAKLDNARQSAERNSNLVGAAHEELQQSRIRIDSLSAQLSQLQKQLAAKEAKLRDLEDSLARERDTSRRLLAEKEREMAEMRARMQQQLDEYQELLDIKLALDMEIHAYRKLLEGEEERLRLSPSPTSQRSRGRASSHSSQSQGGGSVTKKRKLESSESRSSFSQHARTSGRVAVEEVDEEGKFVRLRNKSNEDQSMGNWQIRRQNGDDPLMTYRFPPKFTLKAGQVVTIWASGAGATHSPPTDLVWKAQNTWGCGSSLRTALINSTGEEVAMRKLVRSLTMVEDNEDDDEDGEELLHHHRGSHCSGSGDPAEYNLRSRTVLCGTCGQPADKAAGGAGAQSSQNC
Method: The ability of compounds 2‐6 to degrade progerin was evaluated in Lmna^G609G/G609G fibroblasts, derived from the progeria mouse model that most closely replicates the human disease phenotype. Lamin A/C antibody was used for immunodetection due to its prevalent use in this context, enabling simultaneous visualization of both lamins and progerin [15].
FIGURE 2 (A) Representative cropped immunoblots and quantification of progerin from Lmna^G609G/G609G fibroblasts. Cells were incubated with vehicle or indicated compound at 5 µM for 8 h. MW, molecular weight (in kDa) markers. (B, C) Concentration and time‐dependency of the reduction of progerin levels induced by compounds 2 and 9. Graphs show quantification of progerin in Lmna^G609G/G609G fibroblasts (immunoblots are shown in Supporting Figure S1). Cells were incubated with vehicle or the indicated compound concentration for 8 h. For time‐course experiments, cells were incubated with vehicle or indicated compound at 5 µM. Bar graphs show mean±sem of 3 independent experiments performed in duplicate. Data were analysed using one‐way ANOVA followed by Dunnett's post–hoc test comparing all groups to the vehicle; ^*, p < 0.05. […]
4. Cell lines and culture.
Progeroid mouse fibroblasts, kindly donated by Prof. Carlos López Otín (Oviedo University, Spain), were isolated from LmnaG609G/G609G mice[19] and wild-type (WT) littermates and immortalized by retroviral transduction with SV40 large T antigen (SV40-LT). Since LmnaG609G/G609G mouse represents the most suitable and widely accepted model of HGPS, as it most faithfully recapitulates the molecular and phenotypic features of the human disease, its use in this study is fully justified. Moreover, although this cell […]
cells have been extensively validated by additional independent studies.[15, 65, 66] […]
experiments, nor does it affect the conclusions presented in our study.
Mouse fibroblasts were grown in Dulbecco’s modified eagle medium (DMEM, Gibco) supplemented with 10% heat inactivated fetal bovine serum (FBS, Gibco), 50 U/mL penicillin, and 50 μg/mL streptomycin (Invitrogen). Human progeroid HGADFN167 LmnaG608G/G608G (G608G) or or healthy HGADFN168 Lmna+/+ (WT) fibroblasts, were obtained from The Progeria Research Foundation (RRIDs CVCL_1Y92 and CVCL_1Y93, respectively) and cultured in DMEM with 20% heat inactivated FBS, 50 U/mL penicillin and 50 μg/mL streptomycin. All cells were incubated in a humidified atmosphere at 37 °C in the presence of 5% CO2 and were confirmed to be free of mycoplasma contamination. […]
Measurements were performed in triplicate, and each experiment was repeated at least three times. The viability values were calculated from the percentage of viable cells with respect to 100% viability of the vehicle-treated cells.
6. Immunoblot and immunocytofluorescence analysis.
Mouse or human progeroid cells were seeded at density of […] or 5 x 10^4 cells respectively on 12-well plates and incubated for 24 h in DMEM medium. For proteosome-dependency assays, cells were pre-treated either with the proteasome inhibitor (S)-MG132 (20 µM) or with the NEDD8-activating enzyme inhibitor MLN4924 (5 µM) for 2 h prior to […]
compound exposure. Then, cells were incubated with compound of interest or DMSO for the appropriate time and lysed with cold laemmli buffer (50 mM Tris-HCl pH 7.4, 150 mM NaCl, 1% Igepal) with a mixture of protease and phosphatase inhibitors (1 mM PMSF, 10 mM NaF, 0.3 mg/mL CalyculinA, 1 mM sodium orthovanadate, 10 mM β-glycerol-phosphate; all from Sigma-Aldrich and complete protease inhibitor cocktail, from Roche). Proteins were denatured at 95 ᵒC for 5 min and the lysates were immediately used or stored at -20 ᵒC until use. Samples were analysed by electrophoresis in polyacrylamide gels (All Kd SDS-PAGE, BioRad) and the proteins transferred to nitrocellulose membranes (GE Healthcare, Amersham). After 1 h of incubation in blocking buffer [20 mM Tris pH 7.6, 150 mM NaCl and 0.1% Tween-20 (TBS-T) with […]

SMILES	effect on key phenotypic hallmarks of progeria [1]	extension of average life expectancy [1]	progerin levels (immunoblot quantification) (progerin)
NC(=O)N1CCC(CC(=O)N2CCC([C@H]3c4ncc(Br)cc4CCc4cc(Cl)cc(Br)c43)CC2)CC1 [lonafarnib]	does not improve some of the key phenotypic hallmarks of progeria	up to 33%	
CN1C(=O)CCC(N2C(=O)c3cccc(NCCCCCC(=O)O[C@H]4Cc5cc6ccc(=O)oc6cc5OC4(C)C)c3C2=O)C1=O (some centres unmarked) [compound 13]			ineffective in lowering progerin levels
Cc1ncsc1-c1ccc(CNC(=O)[C@@H]2C[C@@H](O)CN2C(=O)[C@@H](NC(=O)CCCCC(=O)O[C@H]2Cc3cc4ccc(=O)oc4cc3OC2(C)C)C(C)(C)C)cc1 [compound 11]			neither the glutarimide derivative 10 nor the VHL‐ligand‐containing compound 11 led to a significant reduction in progerin levels
CC1(C)Oc2cc3oc(=O)ccc3cc2C[C@@H]1OC(=O)CCCCCOc1ccc(C2CCC(=O)NC2=O)cc1 (some centres unmarked) [compound 10]			neither the glutarimide derivative 10 nor the VHL‐ligand‐containing compound 11 led to a significant reduction in progerin levels
